Results on 19 molecules are retold here after ChEMBL document CHEMBL1909046, “DrugMatrix in vitro pharmacology data”.

In data set [1] the target is T1, C-C chemokine receptor type 4 (Homo sapiens, UniProt P51679). Further: in other assays of this panel Not Active means under 50% inhibition at 10 µM.
T1 sequence (P51679 whole entry): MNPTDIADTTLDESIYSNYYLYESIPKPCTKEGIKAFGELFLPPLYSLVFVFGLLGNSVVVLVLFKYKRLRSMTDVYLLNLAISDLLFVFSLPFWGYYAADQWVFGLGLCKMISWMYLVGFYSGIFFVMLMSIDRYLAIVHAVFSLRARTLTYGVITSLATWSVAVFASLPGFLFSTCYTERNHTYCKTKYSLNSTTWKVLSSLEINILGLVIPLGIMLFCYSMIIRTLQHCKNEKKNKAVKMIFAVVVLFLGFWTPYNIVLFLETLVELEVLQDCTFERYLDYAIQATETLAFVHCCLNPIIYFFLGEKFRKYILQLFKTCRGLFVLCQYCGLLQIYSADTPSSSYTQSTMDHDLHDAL
Format: cell membranes, Membrane. The settings on record: chem-1.

The target in data set [2] is Receptor tyrosine-protein kinase erbB-2 (Homo sapiens, UniProt P04626). In words: biochemical. The class given is cell-based, Insect cells.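 Further: inhibition of HER2 kinase enzyme activity, measured with Poly(Glu:Tyr) as the phosphorylation substrate; in other assays of this panel Not Active means under 50% inhibition at 10 µM.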
For data set [3], the target named is cGMP-specific 3',5'-cyclic phosphodiesterase (Homo sapiens, UniProt O76074). In words: DRUGMATRIX: Phosphodiesterase PDE5 enzyme inhibition (substrate: [3H]cGMP + cGMP). Format: tissue-based, Platelet. The note with it: platelet; Not Active = under 50% inhibition at 10 µM.
A short description of data set [4]: DRUGMATRIX: Serotonin (5-Hydroxytryptamine) 5-HT3 radioligand binding (ligand: [3H] GR-65630). The class given is cell membranes, Membrane. The note with it: hek293; Not Active = under 50% inhibition at 10 µM.
A further data set addresses Melanocortin receptor 4 (Homo sapiens, UniProt P32245). Format: cell membranes, Membrane. The note with it: hek293.
Data set [5] concerns the target C-C chemokine receptor type 5 (Homo sapiens, UniProt P51681). The class given is cell membranes, Membrane. The settings on record: hek293. Further: in other assays of this panel Not Active means under 50% inhibition at 10 µM.
Another data set addresses Glycine receptor (Rattus norvegicus, UniProt P22771+P24524+P07727+P20781). Format: cell membranes, Wistar, Spinal cord, Membrane.
In another data set the target is Cytochrome P450 2C19 (Homo sapiens, UniProt P33261). The settings on record: bti-tn-5b1-4. Further: in other assays of this panel Not Active means under 50% inhibition at 10 µM.
Chain of Cytochrome P450 2C19 (P33261 whole entry): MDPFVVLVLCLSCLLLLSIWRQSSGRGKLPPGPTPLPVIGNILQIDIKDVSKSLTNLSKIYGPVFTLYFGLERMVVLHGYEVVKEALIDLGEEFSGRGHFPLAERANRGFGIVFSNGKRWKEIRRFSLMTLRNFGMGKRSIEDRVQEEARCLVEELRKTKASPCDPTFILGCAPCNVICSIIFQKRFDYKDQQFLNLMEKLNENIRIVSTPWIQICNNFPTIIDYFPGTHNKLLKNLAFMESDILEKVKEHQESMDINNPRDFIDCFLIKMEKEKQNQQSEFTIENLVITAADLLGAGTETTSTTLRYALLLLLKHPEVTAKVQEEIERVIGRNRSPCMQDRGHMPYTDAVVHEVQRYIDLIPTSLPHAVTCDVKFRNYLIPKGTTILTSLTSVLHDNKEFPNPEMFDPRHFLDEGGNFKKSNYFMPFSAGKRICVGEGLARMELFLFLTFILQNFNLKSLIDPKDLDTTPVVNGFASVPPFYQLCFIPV

Chain of Melanocortin receptor 4 (P32245 whole entry): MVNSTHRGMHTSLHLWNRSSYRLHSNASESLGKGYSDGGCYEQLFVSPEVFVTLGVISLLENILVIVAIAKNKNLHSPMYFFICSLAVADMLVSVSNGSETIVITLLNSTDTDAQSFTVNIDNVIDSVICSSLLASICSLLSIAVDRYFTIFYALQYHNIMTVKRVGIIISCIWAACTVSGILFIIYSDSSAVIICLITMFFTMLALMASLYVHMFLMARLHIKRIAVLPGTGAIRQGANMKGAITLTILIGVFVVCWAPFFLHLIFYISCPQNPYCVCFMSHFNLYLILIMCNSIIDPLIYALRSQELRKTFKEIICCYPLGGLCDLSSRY
Chain of C-C chemokine receptor type 5 (P51681 whole entry): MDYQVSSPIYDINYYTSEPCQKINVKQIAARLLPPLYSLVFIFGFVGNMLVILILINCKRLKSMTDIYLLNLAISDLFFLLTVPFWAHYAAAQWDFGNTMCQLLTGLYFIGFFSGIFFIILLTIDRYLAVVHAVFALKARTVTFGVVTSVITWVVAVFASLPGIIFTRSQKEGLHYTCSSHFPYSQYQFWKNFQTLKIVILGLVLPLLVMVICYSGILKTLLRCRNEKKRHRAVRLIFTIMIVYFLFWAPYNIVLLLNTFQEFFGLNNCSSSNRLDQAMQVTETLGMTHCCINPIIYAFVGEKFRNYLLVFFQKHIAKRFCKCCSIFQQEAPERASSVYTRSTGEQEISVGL
Chain of Receptor tyrosine-protein kinase erbB-2 (P04626 whole entry): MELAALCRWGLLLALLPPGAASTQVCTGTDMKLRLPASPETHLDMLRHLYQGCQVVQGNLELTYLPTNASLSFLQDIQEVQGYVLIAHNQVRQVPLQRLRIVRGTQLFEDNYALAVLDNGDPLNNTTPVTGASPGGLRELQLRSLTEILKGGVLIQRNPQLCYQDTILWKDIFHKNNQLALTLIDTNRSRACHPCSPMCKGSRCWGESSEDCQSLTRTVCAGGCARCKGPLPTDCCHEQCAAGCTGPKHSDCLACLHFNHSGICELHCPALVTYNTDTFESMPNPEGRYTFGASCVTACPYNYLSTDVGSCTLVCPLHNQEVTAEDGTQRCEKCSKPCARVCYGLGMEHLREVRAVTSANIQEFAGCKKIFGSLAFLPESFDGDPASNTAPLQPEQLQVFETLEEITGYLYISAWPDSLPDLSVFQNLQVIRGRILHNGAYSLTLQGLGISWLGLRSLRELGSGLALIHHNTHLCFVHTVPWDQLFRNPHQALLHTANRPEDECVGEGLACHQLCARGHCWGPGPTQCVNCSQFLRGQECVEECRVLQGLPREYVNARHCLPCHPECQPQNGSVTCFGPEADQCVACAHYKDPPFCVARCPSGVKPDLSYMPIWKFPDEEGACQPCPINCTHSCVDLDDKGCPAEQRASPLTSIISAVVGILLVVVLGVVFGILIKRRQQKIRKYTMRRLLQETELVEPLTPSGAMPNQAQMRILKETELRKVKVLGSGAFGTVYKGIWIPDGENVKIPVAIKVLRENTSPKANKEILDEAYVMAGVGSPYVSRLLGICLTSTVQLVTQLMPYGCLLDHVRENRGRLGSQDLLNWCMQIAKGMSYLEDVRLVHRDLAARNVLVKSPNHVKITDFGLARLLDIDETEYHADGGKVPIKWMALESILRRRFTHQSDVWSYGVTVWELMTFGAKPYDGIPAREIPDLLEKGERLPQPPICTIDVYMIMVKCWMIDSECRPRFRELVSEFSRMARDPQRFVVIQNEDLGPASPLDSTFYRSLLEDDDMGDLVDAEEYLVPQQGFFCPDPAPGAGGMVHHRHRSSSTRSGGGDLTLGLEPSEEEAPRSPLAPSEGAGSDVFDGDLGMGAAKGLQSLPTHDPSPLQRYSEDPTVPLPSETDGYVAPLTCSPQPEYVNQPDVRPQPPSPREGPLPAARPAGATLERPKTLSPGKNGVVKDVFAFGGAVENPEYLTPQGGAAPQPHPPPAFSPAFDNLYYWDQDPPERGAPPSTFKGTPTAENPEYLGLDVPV

As a reminder, the IC50 is the point on the concentration scale where inhibition reaches its midpoint. Usually Ki stands for a dissociation constant, usually derived from enzyme kinetics or from competition with a known ligand. For `CCOc1nc2cccc(C(=O)O)c2n1Cc1ccc(-c2ccccc2-c2nnn[nH]2)cc1`, the IC50 entry was “Not Active” in data set [1]; 5950 nM in data set [2] (read-out: IC50); “Not Active” in data set [3]; “Not Active” in data set [4]; “Not Active” against Melanocortin receptor 4; “Not Active” in data set [5]. Further, the IC50 entry on Glycine receptor is recorded as “Not Active”. The Ki result in data set [4] is listed as “Not Active”.

As to `O=C(O)CCCc1cccs1`, the IC50 entry (at Cytochrome P450 2C19; in data set [1]; in data set [2] (insect cells); in data set [3]; in data set [4]; on Melanocortin receptor 4) was “Not Active” each time. The IC50 result (in data set [5]; against Glycine receptor) was “Not Active” in each case. Further, the Ki entry (on Cytochrome P450 2C19; in data set [4]) was “Not Active” in each case.

For `COc1ccccc1N`, the IC50 result (against Cytochrome P450 2C19; in data set [1]; in data set [2] (insect cells); in data set [3]; in data set [4]; against Melanocortin receptor 4) was “Not Active” throughout. In addition, the half-inhibitory concentration (IC50) entry (in data set [5]; against Glycine receptor) was “Not Active” throughout. Also, the Ki result (at Cytochrome P450 2C19; in data set [4]) was “Not Active” in each case.

Consider `O=C(c1ccccc1F)N1CCC(Cc2ccccc2)CC1`, for which the IC50 result (in data set [1]; in data set [2] (insect cells); in data set [3]; in data set [4]; at Melanocortin receptor 4; in data set [5]) was “Not Active” each time. Besides, the IC50 entry against Glycine receptor was “Not Active”. The Ki result in data set [4] is “Not Active”.

On to `Cc1c(O)cccc1C(=O)N[C@@H](CSc1ccccc1)[C@H](O)CN1C[C@H]2CCCC[C@H]2C[C@H]1C(=O)NC(C)(C)C`, for which the IC50 entry (at Cytochrome P450 2C19; in data set [1]; in data set [2] (insect cells); in data set [3]; in data set [4]; at Melanocortin receptor 4) was “Not Active” in each case. Moreover, the IC50 result (in data set [5]; against Glycine receptor) was “Not Active” each time. Besides, the Ki result (on Cytochrome P450 2C19; in data set [4]) was “Not Active” each time.

Regarding `CC(O)COC[C@H]1O[C@@H]2O[C@H]3[C@H](O)[C@@H](O)[C@@H](O[C@H]4[C@H](O)[C@@H](O)[C@@H](O[C@H]5[C@H](O)[C@@H](O)[C@@H](O[C@H]6[C@H](O)[C@@H](O)[C@@H](O[C@H]7[C@H](O)[C@@H](O)[C@@H](O[C@H]8[C@H](O)[C@@H](O)[C@@H](O[C@H]1[C@H](O)[C@H]2O)O[C@@H]8COCC(C)O)O[C@@H]7COCC(C)O)O[C@@H]6COCC(C)O)O[C@@H]5COCC(C)O)O[C@@H]4COCC(C)O)O[C@@H]3COCC(C)O` (stereo partly drawn) [2-HYDROXYPROPYL-BETA-CYCLODEXTRIN], the IC50 entry (against Cytochrome P450 2C19; in data set [1]; in data set [2] (insect cells); in data set [3]; in data set [4]; against Melanocortin receptor 4) was “Not Active” in each case. For the same molecule, the concentration for half-maximal inhibition (IC50) result (in data set [5]; against Glycine receptor) was “Not Active” in each case. The Ki result (at Cytochrome P450 2C19; in data set [4]) was “Not Active” throughout.

Take `NC(=O)c1cccc(N)c1` [3-AMINOBENZAMIDE]: the half-inhibitory concentration (IC50) entry (at Cytochrome P450 2C19; in data set [1]; in data set [2] (insect cells); in data set [3]; in data set [4]; against Melanocortin receptor 4) was “Not Active” throughout. For the same molecule, the IC50 result (in data set [5]; on Glycine receptor) was “Not Active” throughout. For the same molecule, the Ki result (at Cytochrome P450 2C19; in data set [4]) was “Not Active” in each case.

As to `C[C@H]1O[C@H](O[C@H]2[C@H](O)[C@@H](O)[C@@H](O[C@H]3[C@H](O)[C@@H](O)C(O)O[C@@H]3CO)O[C@@H]2CO)[C@H](O)[C@@H](O)[C@@H]1N[C@H]1C=C(CO)[C@@H](O)[C@H](O)[C@H]1O` (stereo not given in full) [ACARBOSE], the IC50 entry (on Cytochrome P450 2C19; in data set [1]; in data set [2] (insect cells); in data set [3]; in data set [4]; against Melanocortin receptor 4) was “Not Active” in each case. The IC50 entry (in data set [5]; against Glycine receptor) was “Not Active” throughout. The Ki entry (on Cytochrome P450 2C19; in data set [4]) was “Not Active” each time.

Consider `NC12CC3CC(CC(C3)C1)C2` [AMANTADINE], for which the IC50 result (in data set [1]; in data set [2] (insect cells); in data set [3]; in data set [4]; against Melanocortin receptor 4; in data set [5]) was “Not Active” each time. For the same molecule, at Glycine receptor, the IC50 entry is reported as “Not Active”. For the same molecule, the Ki result in data set [4] is recorded as “Not Active”.

In the case of `CC(C)c1c(C(=O)Nc2ccccc2)c(-c2ccccc2)c(-c2ccc(F)cc2)n1CC[C@@H](O)C[C@@H](O)CC(=O)O` [ATORVASTATIN], the IC50 entry (in data set [1]; in data set [2] (insect cells); in data set [3]; in data set [4]; against Melanocortin receptor 4; in data set [5]) was “Not Active” throughout. Besides, the IC50 result against Glycine receptor is given as “Not Active”. The Ki entry in data set [4] is “Not Active”.

`CC(C)(C(=O)O)c1ccc(C(O)CCCN2CCC(C(O)(c3ccccc3)c3ccccc3)CC2)cc1` (stereo not given) [FEXOFENADINE]: the IC50 result (in data set [1]; in data set [2] (insect cells); in data set [3]; in data set [4]; at Melanocortin receptor 4; in data set [5]) was “Not Active” each time. The IC50 result against Glycine receptor is “Not Active”. Also, the Ki result in data set [4] was “Not Active”.

Turning to `CC(=O)OCC(=O)[C@@]12OC(C)(C)O[C@@H]1C[C@H]1[C@@H]3C[C@H](F)C4=CC(=O)C=C[C@]4(C)[C@@]3(F)[C@@H](O)C[C@@]12C` [FLUOCINONIDE], the IC50 entry (in data set [1]; in data set [2] (insect cells); in data set [3]; in data set [4]; on Melanocortin receptor 4; in data set [5]) was “Not Active” throughout. For the same molecule, the IC50 result against Glycine receptor is listed as “Not Active”. Besides, the Ki entry in data set [4] was “Not Active”.

Consider `N[C@@H](Cn1ccc(=O)c(O)c1)C(=O)O` [L-MIMOSINE], for which the concentration for half-maximal inhibition (IC50) result (in data set [1]; in data set [2] (insect cells); in data set [3]; in data set [4]; against Melanocortin receptor 4; in data set [5]) was “Not Active” each time. Also, the IC50 entry against Glycine receptor is given as “Not Active”. Besides, the Ki entry in data set [4] was “Not Active”.

Regarding `C[C@@H]1C/C=C/C=C/C=C/C=C/[C@H](O[C@@H]2O[C@H](C)[C@@H](O)[C@H](N)[C@@H]2O)C[C@@H]2O[C@](O)(C[C@@H](O)C[C@H]3O[C@@H]3/C=C/C(=O)O1)C[C@H](O)[C@H]2C(=O)O` [NATAMYCIN], the IC50 result (in data set [1]; in data set [2] (insect cells); in data set [3]; in data set [4]; on Melanocortin receptor 4; in data set [5]) was “Not Active” each time. For the same molecule, the IC50 result against Glycine receptor is on record as “Not Active”. For the same molecule, in data set [4], the Ki result is reported as “Not Active”.

Regarding `COc1ccc2c(c1OC)C(=O)O[C@@H]2[C@H]1c2c(cc3c(c2OC)OCO3)CCN1C` [NOSCAPINE], the IC50 entry (in data set [1]; in data set [2] (insect cells); in data set [3]; in data set [4]; against Melanocortin receptor 4; in data set [5]) was “Not Active” throughout. Also, on Glycine receptor, the IC50 entry is listed as “Not Active”. Also, in data set [4], the Ki result is recorded as “Not Active”.

Regarding `NNCCc1ccccc1` [PHENELZINE], the IC50 entry (in data set [1]; in data set [2] (insect cells); in data set [3]; in data set [4]; on Melanocortin receptor 4; in data set [5]) was “Not Active” each time. The IC50 entry against Glycine receptor is on record as “Not Active”. Besides, the Ki result in data set [4] is “Not Active”.

`CCN(CC)CCNC(=O)c1ccc(N)cc1` [PROCAINAMIDE]: the IC50 entry (in data set [1]; in data set [2] (insect cells); in data set [3]; in data set [4]; against Melanocortin receptor 4; in data set [5]) was “Not Active” each time. The IC50 entry against Glycine receptor is recorded as “Not Active”. For the same molecule, in data set [4], the Ki entry was “Not Active”.

Regarding `C[C@]12C=CC(=O)C=C1CC[C@H]1[C@@H]3C[C@@H](O)[C@](O)(C(=O)CO)[C@@]3(C)C[C@H](O)[C@@]12F` [TRIAMCINOLONE], the IC50 entry (in data set [1]; in data set [2] (insect cells); in data set [3]; in data set [4]; against Melanocortin receptor 4; in data set [5]) was “Not Active” in each case. On Glycine receptor, the IC50 result is “Not Active”. In data set [4], the Ki result is “Not Active”.

As to COLISTIN, the IC50 result against Cytochrome P450 2C19 is “Not Active”; in data set [1] it was “Not Active”; in data set [3] it was “Not Active”; in data set [4] it was “Not Active”; on Melanocortin receptor 4 (read-out: IC50) it was 841 nM; in data set [5], “Not Active”. Also, at Glycine receptor, the IC50 entry is reported as “Not Active”. Further, the Ki result was “Not Active” at Cytochrome P450 2C19; “Not Active” in data set [1]; “Not Active” in data set [3]; “Not Active” in data set [4]; 809 nM at Melanocortin receptor 4 (read-out: Ki); “Not Active” in data set [5]. Also, the Ki result on Glycine receptor was “Not Active”.
